The source of these data is ChEMBL document CHEMBL3608235, “Pyrroloaryls and pyrroloheteroaryls: Inhibitors of the HIV fusion/attachment, reverse transcriptase and integrase” (Bioorg Med Chem, 2015).

pEC50, pIC50: −log10 of the molar value.

Data set [1] concerns Human immunodeficiency virus 2. Briefly: Antiviral activity against HIV2 ROD. The conditions noted are these: Human immunodeficiency virus 2, ISOLATE ROD. It is filed as functional, organism-based.
The nature of data set [2]: Cytotoxicity against mock-infected human MT4 cells assessed as reduction in cell viability. In kind it is cell-based.
For data set [3], the system named is Human immunodeficiency virus 1. The data set can be described thus: Antiviral activity against HIV1 infected in human MT4 cells assessed as reduction in virus-induced cytopathogenicity. It is filed as functional, organism-based. The conditions noted are these: Human immunodeficiency virus 1, MT4. For orientation: Protection from cytopathic effect is a common read-out in antiviral testing.

Data set [4] is described as follows: Selectivity index, ratio of CC50 for mock-infected human MT4 cells to EC50 for HIV1 infected in human MT4 cells. In kind it is toxicity, cell-based. The conditions noted are these: MT4 cells (mock-infected and HIV1-infected), read-out: Ratio CC50/EC50.
Data set [5] has as its target Human immunodeficiency virus type 1 reverse transcriptase (Human immunodeficiency virus 1, UniProt Q72547). Briefly: Inhibition of HIV1 reverse transcriptase.

In general, pEC50 refers to the EC50 on a negative log10 scale, so that one unit is a factor of ten. With `O=C1N(Cc2ccccc2Cl)c2cccn2S(=O)(=O)N1Cc1ccccc1`, the negative-log EC50 (pEC50) in data set [1] was less than 3.82.
The CC50 is the concentration that lowers cell viability or growth by half. `CC(C)c1c(COC(N)=O)cn(Cc2ccncc2)c1Sc1cccc(F)c1`: the CC50 in data set [2] was more than 200 µM. The pEC50 in data set [3] was 6.70. Besides, the selectivity ratio in data set [4] turned out to be 1000.
A word on the pIC50: it is −log10 of the IC50, conventionally taken in molar units. On to `CC1(c2ccccc2)Sc2ccccc2-n2cccc2C1=O` (centres undefined), for which the CC50 in data set [2] worked out at 10 µM. Moreover, in data set [3], the pEC50 was 5.16. The compound also showed a pIC50 in data set [5] of 6.46. For the same compound, the selectivity ratio in data set [4] was 9.
Turning to `Cc1cc(C)cc(Sc2c(C(C)C)c(COC(N)=O)cn2Cc2ccncc2)c1`, the CC50 in data set [2] was more than 200 µM. The pEC50 in data set [3] was 6.82. The selectivity ratio in data set [4] came out at 1330.
For `CC(C)=CCN1C(=O)N(Cc2cccc(Cl)c2)S(=O)(=O)n2cccc21`, the pEC50 in data set [1] is less than 3.82.
In turn, `O=C1N(Cc2ccccc2)c2cccn2S(=O)(=O)N1Cc1cccc(Cl)c1` had a pEC50 in data set [1] of less than 3.82.
`O=C1Nc2ccc(Cl)cc2S(=O)(=O)c2cn(CC3CC3)cc21`: the pEC50 in data set [3] was 5.66.
In data set [1], `O=C1N(Cc2ccccc2)c2cccn2S(=O)(=O)N1Cc1ccccc1` gave a pEC50 of less than 3.82.
`N#Cc1cccc(CN2C(=O)N(Cc3cccc(Br)c3)S(=O)(=O)n3cccc32)c1` showed a negative logarithm of the EC50 (pEC50) in data set [1] of less than 3.82.
In turn, `O=C1N(Cc2ccccc2Br)c2cccn2S(=O)(=O)N1Cc1cccc(Br)c1` gave a pEC50 in data set [1] of less than 3.82.
In data set [1], `N#Cc1ccccc1CN1C(=O)N(Cc2cccc(Br)c2)S(=O)(=O)n2cccc21` gave a pEC50 of less than 3.82.
For the compound `O=C1Nc2ccc(Cl)cc2S(=O)(=O)n2cccc21`, in data set [2], the cytotoxic concentration (CC50) is more than 300 µM. The pEC50 in data set [3] was 6.00. This compound had a pIC50 in data set [5] of 6.15. In addition, in data set [4], the selectivity ratio was more than 300.
Take `CC(C)c1c(CO)cn(Cc2ccncc2)c1Sc1cc(Cl)cc(Cl)c1`: the half-maximal cytotoxic concentration (CC50) in data set [2] was more than 200 µM. Moreover, the pEC50 in data set [3] is 7.52. For the same compound, in data set [4], the selectivity ratio is more than 6670.
`O=S1(=O)c2cc(Cl)ccc2NC(=S)c2c[nH]cc21`: the pEC50 in data set [3] was 5.09.
As for `CC(C)c1c(COC(N)=O)cn(Cc2ccncc2)c1Sc1cc(Cl)cc(Cl)c1`, in data set [2], the CC50 is more than 200 µM. In addition, in data set [3], the pEC50 is 6.92. In data set [4], the selectivity ratio was more than 1670.
In data set [1], `O=C1N(Cc2cccc(Cl)c2)c2cccn2S(=O)(=O)N1Cc1cccc(Cl)c1` gave a pEC50 of less than 3.82.
On to `O=C1Nc2ccccc2S(=O)(=O)n2cccc21`, for which, in data set [2], the CC50 is more than 100 µM. Besides, the pEC50 in data set [3] was 5.46. The same compound gave a pIC50 in data set [5] of 5.40.
In data set [1], `O=C1N(Cc2ccccc2)c2cccn2S(=O)(=O)N1Cc1cccc(F)c1` showed a pEC50 of less than 3.82.
As to `CC(C)=CCn1cc2c(c1)S(=O)(=O)c1cc(Cl)ccc1NC2=O`, the CC50 in data set [2] came to 68 µM. Besides, in data set [4], the selectivity ratio is 226.
With `CC(C)N1C(=O)c2cccn2S(=O)(=O)c2ccccc21`, the CC50 in data set [2] is more than 100 µM. The pEC50 in data set [3] was 5.46. The compound also had a pIC50 in data set [5] of 5.40.
Consider `CN1C(=S)c2cn(C)cc2S(=O)(=O)c2cc(Cl)ccc21`, for which, in data set [3], the pEC50 is 5.80.
In data set [1], `O=C1N(Cc2ccccc2Br)c2cccn2S(=O)(=O)N1Cc1ccccc1` gave a negative logarithm of the EC50 (pEC50) of less than 3.82.
In the case of `CCC1(c2ccccc2)Sc2ccccc2-n2cccc2C1=O` (centres undefined), in data set [2], the CC50 was 0.25 µM. Besides, in data set [3], the pEC50 is 5.31. Besides, the pIC50 in data set [5] was 6.33. Besides, the selectivity ratio in data set [4] amounted to 9.
On to `CCC1(CC=C(C)C)Sc2ccccc2-n2cccc2C1=O` (centres undefined), for which the cytotoxic concentration (CC50) in data set [2] is 0.3 µM. In addition, the negative logarithm of the EC50 (pEC50) in data set [3] is 4.34. The compound further showed a pIC50 in data set [5] of 5.87. Further, the selectivity ratio in data set [4] amounted to 9.
With `CCN1C(=O)c2cccn2S(=O)(=O)c2ccc(Cl)cc21`, in data set [2], the CC50 was more than 100 µM. Moreover, in data set [3], the pEC50 is 5.46. Also, in data set [5], the negative logarithm of the IC50 (pIC50) is 5.40.
Turning to `O=C1N(Cc2ccccc2Br)c2cccn2S(=O)(=O)N1Cc1cccc(Cl)c1`, the pEC50 in data set [1] was less than 3.82.
Turning to `CC(C)=CCn1cc2c(c1)S(=O)(=O)c1cc(Cl)ccc1NC2=S`, in data set [3], the negative logarithm of the EC50 (pEC50) was 6.15.
Compound `N#CCN1C(=O)N(Cc2cccc(F)c2)S(=O)(=O)n2cccc21` showed a pEC50 in data set [1] of less than 3.82.
In the case of `O=C(NNc1nc2ccccc2n2cccc12)c1cnccn1`, in data set [5], the pIC50 is 4.72.
On to `CN1C(=O)c2cccn2S(=O)(=O)c2ccccc21`, for which the CC50 in data set [2] was more than 100 µM. Besides, the pEC50 in data set [3] is 5.46. Further, the pIC50 in data set [5] was 5.40.
`N#CCN1C(=O)N(Cc2cccc(Br)c2)S(=O)(=O)n2cccc21` had a pEC50 in data set [1] of less than 3.82.
On to `N#Cc1ccccc1CN1C(=O)N(Cc2cccc(Cl)c2)S(=O)(=O)n2cccc21`, for which, in data set [1], the pEC50 was less than 3.82.
Take `C=CCN1C(=O)c2cccn2S(=O)(=O)c2cc(Cl)ccc21`: the CC50 in data set [2] was more than 300 µM. For the same compound, the pEC50 in data set [3] was 5.43. This compound gave a pIC50 in data set [5] of 5.54. Besides, the selectivity ratio in data set [4] was more than 81.
For `Cc1cccc(Sc2c(C(C)C)c(COC(N)=O)cn2Cc2ccncc2)c1`, in data set [2], the half-maximal cytotoxic concentration (CC50) is more than 200 µM. The pEC50 in data set [3] is 6.92. The selectivity ratio in data set [4] worked out at 1670.
Regarding `Cn1cc2c(c1)S(=O)(=O)c1cc(Cl)ccc1NC2=S`, in data set [3], the negative-log EC50 (pEC50) is 5.12.
`O=C1N(Cc2ccccc2)c2cccn2S(=O)(=O)N1Cc1cccc(Br)c1`: in data set [1], the pEC50 was less than 3.82.
As for `CC(C)=CCN1C(=O)N(Cc2cccc(F)c2)S(=O)(=O)n2cccc21`, the pEC50 in data set [1] was less than 3.82.
For `N#Cc1cccc(CN2C(=O)N(Cc3cccc(F)c3)S(=O)(=O)n3cccc32)c1`, in data set [1], the pEC50 was less than 3.82.
The compound `CC(C)=CCN1C(=O)N(Cc2ccccc2)S(=O)(=O)n2cccc21` had a pEC50 in data set [1] of less than 3.82.
As to `CSCn1cc2c(c1)S(=O)(=O)c1cc(Cl)ccc1NC2=O`, the pEC50 in data set [3] is 5.66.
For `Cc1cccc(Sc2c(C(C)C)c(CO)cn2Cc2ccncc2)c1`, in data set [2], the CC50 came out at 50 µM. Besides, the pEC50 in data set [3] was 8.10. Besides, the selectivity ratio in data set [4] was 3250.
In turn, `N#Cc1cccc(CN2C(=O)N(Cc3cccc(Cl)c3)S(=O)(=O)n3cccc32)c1` had a pEC50 in data set [1] of less than 3.82.
In data set [1], `O=C1N(Cc2cccc(Cl)c2)c2cccn2S(=O)(=O)N1Cc1ccccc1` gave a negative logarithm of the EC50 (pEC50) of less than 3.82.
For the compound `CC(C)c1c(COC(N)=O)cn(Cc2ccncc2)c1Sc1cc(F)cc(F)c1`, in data set [2], the CC50 was more than 200 µM. For the same compound, the pEC50 in data set [3] is 7.00. Also, the selectivity ratio in data set [4] is 2000.
With `O=C1N(Cc2ccccc2Br)c2cccn2S(=O)(=O)N1Cc1cccc(F)c1`, the pEC50 in data set [1] was less than 3.82.
On the same count and under the same terms, for `N#CCN1C(=O)N(Cc2ccccc2)S(=O)(=O)n2cccc21` the value was less than 3.82.
For the compound `C=CCN1C(=O)c2cccn2S(=O)(=O)c2ccccc21`, the CC50 in data set [2] is more than 100 µM. Moreover, in data set [3], the pEC50 was 5.46. In data set [5], the pIC50 was 5.40.
Regarding `CC(C)c1c(CO)cn(Cc2ccncc2)c1Sc1cccc(F)c1`, in data set [2], the CC50 amounted to 71 µM. Further, the pEC50 in data set [3] is 7.30. In data set [4], the selectivity ratio amounted to 1420.
Regarding `CC(C)c1c(COC(N)=O)cn(Cc2ccc(N)cc2)c1Sc1cc(Cl)cc(Cl)c1`, the CC50 in data set [2] is more than 200 µM. Moreover, the pEC50 in data set [3] was 7.00. Besides, in data set [4], the selectivity ratio turned out to be 2000.
Take `N#CCN1C(=O)N(Cc2cccc(Cl)c2)S(=O)(=O)n2cccc21`: the pEC50 in data set [1] was less than 3.82.
`O=C1N(Cc2cccc(Cl)c2)c2cccn2S(=O)(=O)N1Cc1cccc(Br)c1` gave a pEC50 in data set [1] of less than 3.82.
For the compound `CC(C)=CCN1C(=O)N(Cc2cccc(Br)c2)S(=O)(=O)n2cccc21`, in data set [1], the negative logarithm of the EC50 (pEC50) was less than 3.82.
As for `CCN1C(=O)c2cccn2S(=O)(=O)c2ccccc21`, the CC50 in data set [2] was more than 100 µM. Moreover, the pEC50 in data set [3] is 5.46. Besides, the pIC50 in data set [5] was 5.40.
